Test system: Stratum Corneum
Experiment: Dermometer, mechanical measurement of the plasticizing effect (elastic modulus of Stratum Corneum)
Details: for plasticizing effect on the stratum corneum (in words) / ranking of plasticizing effect among tested compounds: 3% aqueous solution, 30° C., 75% RH; for Relative variation in the elastic modulus of Stratum Corneum, 2H / Relative variation in the elastic modulus of Stratum Corneum, 20H: 30° C. and 75% relative humidity, products tested at 3% in water (controls in water), mean ± standard deviation, 10 samples; for Relative variation in the elastic modulus of Stratum Corneum, 2H: 2 h after application; for Relative variation in the elastic modulus of Stratum Corneum, 20H: 20 h after application
Description: A test was performed to evaluate the moisturizing potential of the compounds of the invention which are formulated in a 3% aqueous solution.
Dermometer, mechanical measurement of the plasticizing effect (described by J de Rigal, J-L. Leveque, International Journal of Cosmetic Science, 1982, 247-260).
The tests carried out were performed under the standard conditions on stratum corneum in a chamber at controlled temperature and humidity (T=30° C. and RH=75%). The elastic modulus measurements are performed on each control test specimen and then 2 hours and 20 hours after application of the treatment. The relative variation in the modulus makes it possible to assess the plasticizing effect of the active agent on the Stratum Corneum.
The mean and the standard deviation were calculated on 10 stratum corneum samples.

NC(=O)[C@H](O)[C@H](O)CO [Compound 3, (2R,3R)-2,3,4-Trihydroxybutanamide]
plasticizing effect on the stratum corneum (in words): significant plasticizing effect | Relative variation in the elastic modulus of Stratum Corneum, 2H: −32 +/− 18% | Relative variation in the elastic modulus of Stratum Corneum, 20H: −34 +/− 15%

C[Si](C)(C)CNC(=O)[C@H](O)[C@H](O)CO [Compound 5, (2R,3R)-2,3,4-trihydroxy-N-[(trimethylsilyl)methyl]butanamide]
plasticizing effect on the stratum corneum (in words): significant plasticizing effect | Relative variation in the elastic modulus of Stratum Corneum, 2H: −34 +/− 15% | Relative variation in the elastic modulus of Stratum Corneum, 20H: −31 +/− 18%

O=C(NCCO)[C@H](O)[C@H](O)CO [Compound 9, (2R,3R)-2,3,4-trihydroxy-N-(2-hydroxyethyl)butanamide]
plasticizing effect on the stratum corneum (in words): significant plasticizing effect | Relative variation in the elastic modulus of Stratum Corneum, 2H: −26 +/− 14% | Relative variation in the elastic modulus of Stratum Corneum, 20H: −27 +/− 16%

O=C([C@H](O)[C@H](O)CO)N(CCO)CCO [Compound 14, (2R,3R)-2,3,4-trihydroxy-N,N-bis(2-hydroxyethyl)butanamide]
plasticizing effect on the stratum corneum (in words): significant plasticizing effect | ranking of plasticizing effect among tested compounds: most effective | Relative variation in the elastic modulus of Stratum Corneum, 2H: −23 +/− 18% | Relative variation in the elastic modulus of Stratum Corneum, 20H: −49 +/− 14%

CCN(CCO)C(=O)[C@H](O)[C@H](O)CO [Compound 15, (2R,3R)—N-ethyl-2,3,4-trihydroxy-N-(2-hydroxyethyl)butanamide]
plasticizing effect on the stratum corneum (in words): significant plasticizing effect | ranking of plasticizing effect among tested compounds: most effective | Relative variation in the elastic modulus of Stratum Corneum, 2H: -28 +/− 10% | Relative variation in the elastic modulus of Stratum Corneum, 20H: −48 +/− 12%

OCC(O)CO [Glycerol, reference compound]
Relative variation in the elastic modulus of Stratum Corneum, 2H: −41 ± 12% | Relative variation in the elastic modulus of Stratum Corneum, 20H: −51 ± 15%

NC(N)=O [Urea, reference compound]
Relative variation in the elastic modulus of Stratum Corneum, 2H: −72 ± 9% | Relative variation in the elastic modulus of Stratum Corneum, 20H: −83 ± 7%
